The subject of experiment [1] is carbonylated protein in three-dimensional human skin model TESTSKIN (LSE-high). Put plainly: Carbonylated protein in three-dimensional human skin model, Western blotting (DNPH). Format: cell-based. The note with it: for Relative photographic density (carbonylated protein): untreated without UV = 100%; for effect on accumulation of carbonylated protein: retinoic acid and retinol at 3 and 10 μM. The procedure: (§1) Three-dimensional human skin models are widely used in safety evaluation and effectiveness evaluation as a simulated model of human skin. In this test, TESTSKIN (LSE-high) (Toyobo Co., Ltd.) was used as a three-dimensional human skin model.
(§2) A culture medium was added to the outer well of TESTSKIN (LSE-high) and cultured for 24 hours. UVA and UVB were irradiated at 10 J/cm^2 and 100 mJ/cm^2, respectively. UVB was irradiated for 2 minutes at a UV intensity of […] using FL20S-E-30/DMR (Clinical Supply Co., Ltd.) to achieve a total irradiation dose of 100 mJ/cm^2. UV intensity was measured using a UV MONITOR MS-211-I (Eiko Instruments Co., Ltd.).
As a control group, three-dimensional human skin models not irradiated with UVA or UVB were also prepared.
(§3) Thereafter, the culture solution was changed and each agent was added by 100 μl onto the tissues in the assay ring, after which the medium was cultured for 36 hours. Thereafter, the tissues were collected and a tissue extraction solution (50 mM Tris-HCl (pH 7.5), 0.5% (Octylphenoxy) polyethoxyethanol (Sigma-Aldrich Corp.)) was added, and then the mixture was homogenized using a Teflon (registered trademark) homogenizer. The homogenized mixture was centrifuged for 30 minutes at 10,000×G to remove tissue fragments, and then dialyzed overnight in distilled water at 4° C. Thereafter, the dialyzed mixture was freeze-dried to remove water. A tissue extraction solution was added to obtain a ×20 concentrate, and this concentrate was used as a three-dimensional skin model extract sample.
In this test, 2,4-dinitrophenyl hydrazine (DNPH), which specifically bonds with the carbonyl group in the protein produced by oxidation damage, was used to label carbonylated protein, and then detection was performed using an anti-DNPH antibody that specifically bonds with DNPH.
The specific method is explained below. DNPH protein was detected from the protein in the sample by means of Western blotting using a DNPH kit (Oxi Blot™ Protein Oxidation Detection Kit; Chemicon International Inc.). Detection was performed by exposing PVDF membranes to light using a […] (ECL PLUS; Amarsham PLC), and an automatic developer (FPM100; FUJIFILM Medical Co., Ltd.) was used to transfer images. A densitometer (Molecular Dynamics Inc.) was then used to analyze the images to quantify the photographic density. For your information, protein in the sample was reduced and measured as deemed appropriate. In this case, 2-mercaptoethanol was used as a reducing agent and the mixture was heated for 5 minutes at 100° C. to sever the disulfide bond.
Based on the above results, it is clear that Bletilla striata extract and silybin suppress accumulation of carbonylated protein in a three-dimensional skin model in a manner dependent on the concentration. Accordingly, whether or not a combined use of Bletilla striata extract and silybin would synergistically suppress accumulation of carbonylated protein was evaluated. Also, whether or not a combined use of silybin and soybean saponin, a substance known to have an action to suppress accumulation of carbonylated protein, would synergistically suppress accumulation of carbonylated protein was evaluated. As a result, regardless of whether or not UV light was irradiated using silybin (3 μM) in combination with Bletilla striata extract (0.1%; final extract concentration of 0.001%), or using silybin (3 μM) in combination with soybean saponin (0.0005%), suppressed the accumulation of carbonylated protein synergistically compared to when a sample was treated with silybin (3 μM), Bletilla striata extract (0.1%; final extract concentration of 0.001%) or soybean saponin (0.0005%) alone, as far as accumulation of carbonylated protein in a three-dimensional skin model was concerned (FIG. 7 and Table 7; results of non-reduced protein).

Experiment [2] concerns trypsin-like proteasome activity in three-dimensional human skin model. Description: Proteasome activity in three-dimensional human skin model. Format: cell-based. The note with it: for proteasome activity compared to the sample not given any treatment under UV irradiation (75%) / proteasome activity compared to the sample not given any treatment: FIG. 11; for proteasome activity compared to the sample not given any treatment: without UV irradiation; for effect on proteasome activity: retinoic acid and retinol at 3 and 10 μM. The procedure: as §1, §2, §3
Proteasome activity was measured using a known method (Hayashi, et al., Mechanisms of Aging and Development, Vol. 102, pp. 55-66, 1998) based on cell extract samples.
The specific method is as follows. For the matrix to measure trypsin-like proteasome activity, t-butyloxycarbonyl-L-leucyl-L-arginyl-L-arginyl-L-4-methyl-coumaryl-7-amide (Peptide Institute, Inc.) was used. A cell extract sample containing protein by an equivalent of 10 μg was added to 10.5 μl of a 100 μM matrix solution prepared with 100 mM Tris-HCl (pH 8.0), after which a cell extraction solution was added to a total volume of 50 μl. The obtained solution was treated for 30 minutes at 37° C., after which the fluorescence intensity of the separated 7-amine-4-methyl coumarin was measured at an excitation wavelength (Ex) of 380 nm and absorption waveform (Em) of 440 nm. The result was obtained for each sample type treated with each agent, as an “average ±standard error” calculated from the measured values of three samples.
Based on the above results, it is clear that Bletilla striata extract and silybin promote proteasome activity in a three-dimensional skin model in a manner dependent on the concentration. Accordingly, whether or not a combined use of Bletilla striata extract and silybin would synergistically promote proteasome activity was evaluated. Also, whether or not a combined use of silybin and soybean saponin, a substance known to have an action to promote proteasome activity, would synergistically promote proteasome activity was evaluated. As a result, regardless of whether or not UV light was irradiated, using silybin (3 μM) in combination with Bletilla striata extract (0.1%; final extract concentration of 0.001%), or using silybin (3 μM) in combination with soybean saponin (0.0005%), promoted proteasome activity synergistically compared to when a sample was treated with silybin (3 μM), Bletilla striata extract (0.1%; final extract concentration of 0.001%) or soybean saponin (0.0005%) alone, as far as promotion of proteasome activity in a three-dimensional skin model was concerned (FIG. 12).

The structures appear in SMILES notation.

For the compound `CC1=C(/C=C/C(C)=C/C=C/C(C)=C/C(=O)O)C(C)(C)CCC1` [Retinoic acid, all-trans-retinoic acid], the “amount of carbonylated protein compared to the sample not given any treatment under UV irradiation” value in experiment [1] (non-reduced protein, 3 μM) was “little change”; in experiment [1] (reduced protein, 3 μM), “little change”. Besides, the “Relative photographic density (carbonylated protein)” value in experiment [1] (non-reduced protein, treatment concentration 3 μM, UV (+)) is 305%; in experiment [1] (non-reduced protein, treatment concentration 3 μM, UV (−)) it was 110%; in experiment [1] (non-reduced protein, treatment concentration 3 μM, UV (−), listed as retinoic acid), “little change”; in experiment [1] (reduced protein, treatment concentration 3 μM, UV (+)) it was 315%; in experiment [1] (reduced protein, treatment concentration 3 μM, UV (−)) it was 105%; in experiment [1] (reduced protein, treatment concentration 3 μM, UV (−), listed as retinoic acid), “little change”. Moreover, the “effect on accumulation of carbonylated protein” value in experiment [1] is given as “no effect”. The “proteasome activity compared to the sample not given any treatment under UV irradiation (75%)” value in experiment [2] (3 μM) was “little change”. Besides, in experiment [2] (3 μM), the “proteasome activity compared to the sample not given any treatment” value is reported as “little change”. For the same compound, the “effect on proteasome activity” value in experiment [2] is on record as “no effect”.
Consider `CC1=C(/C=C/C(C)=C/C=C/C(C)=C/CO)C(C)(C)CCC1` [Retinol, all-trans-retinol], for which the “amount of carbonylated protein compared to the sample not given any treatment under UV irradiation” value is listed as “little change” in experiment [1] (non-reduced protein, 10 μM) and “little change” in experiment [1] (reduced protein, 10 μM). The “Relative photographic density (carbonylated protein)” value in experiment [1] (non-reduced protein, treatment concentration 10 μM, UV (+)) is 315%; in experiment [1] (non-reduced protein, treatment concentration 10 μM, UV (−)) it was 115%; in experiment [1] (non-reduced protein, treatment concentration 10 μM, UV (−), listed as retinol) it was “little change”; in experiment [1] (reduced protein, treatment concentration 10 μM, UV (+)), 330%; in experiment [1] (reduced protein, treatment concentration 10 μM, UV (−)) it was 110%; in experiment [1] (reduced protein, treatment concentration 10 μM, UV (−), listed as retinol) it was “little change”. Also, the “effect on accumulation of carbonylated protein” value in experiment [1] is “no effect”. Besides, in experiment [2] (10 μM), the “proteasome activity compared to the sample not given any treatment under UV irradiation (75%)” value is “little change”. Further, in experiment [2] (10 μM), the “proteasome activity compared to the sample not given any treatment” value is reported as “little change”. Further, the “effect on proteasome activity” value in experiment [2] is on record as “no effect”.
